Data on four compounds can be found in ChEMBL document CHEMBL1131967, “BN 80927: a novel homocamptothecin with inhibitory activities on both topoisomerase I and topoisomerase II” (Bioorg Med Chem Lett, 1999).

Holding throughout (type): functional, cell-based
Assay [1] has as its system SK-OV-3. The assay is described as follows: Antiproliferative activity against human SKOV-3 ovarian cell line.
Assay [2] deals with DU-145. Kind of assay: Antiproliferative activity against human DU145 prostate cell line.
In assay [3] the test system is MCF7. The assay is described as follows: Antiproliferative activity against human MCF-7 breast cell line.
The subject of assay [4] is HT-29. The assay is described as follows: Antiproliferative activity against human HT-29 colon cell line.

Broadly, the pIC50 is the IC50 on a negative log10 scale, so that one unit is a factor of ten. Read a high pIC50 as a low IC50.

Molecules are shown by their SMILES. pIC50: −log10 of the molar value.

Take `CN(C)CCNC(=O)c1cccc2cc3ccccc3nc12`: the pIC50 in assay [1] is 5.62; in assay [2] it was 5.64; in assay [3], 5.42; in assay [4] it was under 5.00.

In the case of `CCc1c2c(nc3ccc(O)cc13)-c1cc3c(c(=O)n1C2)COC(=O)[C@]3(O)CC` [7-ETHYL-10-HYDROXYCAMPTOTHECIN], the pIC50 was 6.14 in assay [1], 7.89 in assay [2], 6.43 in assay [3] and 7.66 in assay [4].

For the compound `COc1cc([C@@H]2c3cc4c(cc3[C@@H](O[C@@H]3O[C@@H]5CO[C@@H](C)O[C@H]5[C@H](O)[C@H]3O)[C@H]3COC(=O)[C@H]23)OCO4)cc(OC)c1O` [ETOPOSIDE], the pIC50 in assay [1] is 5.31; in assay [2], 5.89; in assay [3], 4.00; in assay [4] it was 6.70.

Regarding `Cc1cnc(NCCCN(C)C)c2c1[nH]c1ccc3cc(O)ccc3c12` [INTOPLICINE], the pIC50 in assay [1] is 6.35; in assay [2], 6.25; in assay [3], 6.00; in assay [4], 6.05.
